Laboratory results from patent US11434267B2, “Peptides having reduced toxicity that stimulate cholesterol efflux” (The Regents of the University of California, priority 2013, dated 2022).
Non-standard residues stand in square brackets, D forms with d. No end group written: not given here. Cit = NC(=O)NCCC[C@H](N)C(=O)O

What was measured:
C57Bl/6 mice = assay: Glucose tolerance test in fasted C57Bl/6 mice after single IP peptide injection; assay type: in vivo, mouse; details: single IP 300 mg/kg, 2 g/kg glucose IP
Procedure: Peptide may additionally be screened for the ability to lower glucose using methods illustrated in the EXAMPLES section, e.g., Example 31. For example, the ability to lower glucose can be evaluated using ing animal models, such as mice or rats. Mice, e.g., C57Bl/6 mice, fed a normal lab chow diet are injected IP with a peptide that is undergoing evaluation, e.g., at a does of 300 mg/kg, and the glucose levels in the blood are measured at a time period, e.g. 6 hours, following injection and compared to the levels of blood glucose in a control animal that received PBS. Alternatively, peptides may be screened for the ability to lower glucose as illustrated in Example 36. For example, 300 mg/kg peptide injected IP into to fasted animals and 3 h thereafter a glucose tolerance test is performed by injecting 2 g/kg glucose during which the glucose concentration is followed for 120 minutes. Peptides that have glucose lowering activity show statistically significant lowered glucose relative to controls. Typically, peptides lower glucose by at least 5%, often at least 10% or greater, relative to controls. Peptides may also be evaluated for glucose-lowering activity in animal models of obesity, e.g., DIO mice. Further, peptides may be evaluated for the ability to improve sensitivity to insulin, e.g., as described in Example 31 of the EXAMPLES section.
This example illustrates that CS6253 and T6991-2 lower blood glucose concentrations upon glucose challenge in C57Bl/6 mice (FIG. 51). Fasted male C57Bl/6 mice on chow diet received a single intraperitonel (IP) injection of either vehicle alone or 300 mg/kg of lipid-free peptide, as described for safety studies in FIG. 5. Following treatment, a glucose tolerance test was performed via IP injection of 2 g/kg glucose. Blood was collected from the tail vein at the indicated times and blood glucose measured using a glucometer. Panels A and B— Blood glucose concentrations expressed as mass values over time following glucose challenge, with corresponding area under the curve, respectively. (Bar graph, panel B, bars from left to right are PBS, CS6253, T699102, 2, 4, 5, 6, and 9, respectively) Values are means±SD, n=4 mice per group.

ABCA1 = target: T1, ABCA1 (Mus musculus, UniProt P41233); assay: ABCA1 protein stabilization in J774 macrophages (Western blot); assay type: cell-based; details: J774 after cAMP, 6 h chase
T1 construct: treated (18 h) with a cAMP analog to induce ABCA1 protein expression; endogenous in cells; host or cells: J774 macrophages
T1 sequence (P41233 whole entry): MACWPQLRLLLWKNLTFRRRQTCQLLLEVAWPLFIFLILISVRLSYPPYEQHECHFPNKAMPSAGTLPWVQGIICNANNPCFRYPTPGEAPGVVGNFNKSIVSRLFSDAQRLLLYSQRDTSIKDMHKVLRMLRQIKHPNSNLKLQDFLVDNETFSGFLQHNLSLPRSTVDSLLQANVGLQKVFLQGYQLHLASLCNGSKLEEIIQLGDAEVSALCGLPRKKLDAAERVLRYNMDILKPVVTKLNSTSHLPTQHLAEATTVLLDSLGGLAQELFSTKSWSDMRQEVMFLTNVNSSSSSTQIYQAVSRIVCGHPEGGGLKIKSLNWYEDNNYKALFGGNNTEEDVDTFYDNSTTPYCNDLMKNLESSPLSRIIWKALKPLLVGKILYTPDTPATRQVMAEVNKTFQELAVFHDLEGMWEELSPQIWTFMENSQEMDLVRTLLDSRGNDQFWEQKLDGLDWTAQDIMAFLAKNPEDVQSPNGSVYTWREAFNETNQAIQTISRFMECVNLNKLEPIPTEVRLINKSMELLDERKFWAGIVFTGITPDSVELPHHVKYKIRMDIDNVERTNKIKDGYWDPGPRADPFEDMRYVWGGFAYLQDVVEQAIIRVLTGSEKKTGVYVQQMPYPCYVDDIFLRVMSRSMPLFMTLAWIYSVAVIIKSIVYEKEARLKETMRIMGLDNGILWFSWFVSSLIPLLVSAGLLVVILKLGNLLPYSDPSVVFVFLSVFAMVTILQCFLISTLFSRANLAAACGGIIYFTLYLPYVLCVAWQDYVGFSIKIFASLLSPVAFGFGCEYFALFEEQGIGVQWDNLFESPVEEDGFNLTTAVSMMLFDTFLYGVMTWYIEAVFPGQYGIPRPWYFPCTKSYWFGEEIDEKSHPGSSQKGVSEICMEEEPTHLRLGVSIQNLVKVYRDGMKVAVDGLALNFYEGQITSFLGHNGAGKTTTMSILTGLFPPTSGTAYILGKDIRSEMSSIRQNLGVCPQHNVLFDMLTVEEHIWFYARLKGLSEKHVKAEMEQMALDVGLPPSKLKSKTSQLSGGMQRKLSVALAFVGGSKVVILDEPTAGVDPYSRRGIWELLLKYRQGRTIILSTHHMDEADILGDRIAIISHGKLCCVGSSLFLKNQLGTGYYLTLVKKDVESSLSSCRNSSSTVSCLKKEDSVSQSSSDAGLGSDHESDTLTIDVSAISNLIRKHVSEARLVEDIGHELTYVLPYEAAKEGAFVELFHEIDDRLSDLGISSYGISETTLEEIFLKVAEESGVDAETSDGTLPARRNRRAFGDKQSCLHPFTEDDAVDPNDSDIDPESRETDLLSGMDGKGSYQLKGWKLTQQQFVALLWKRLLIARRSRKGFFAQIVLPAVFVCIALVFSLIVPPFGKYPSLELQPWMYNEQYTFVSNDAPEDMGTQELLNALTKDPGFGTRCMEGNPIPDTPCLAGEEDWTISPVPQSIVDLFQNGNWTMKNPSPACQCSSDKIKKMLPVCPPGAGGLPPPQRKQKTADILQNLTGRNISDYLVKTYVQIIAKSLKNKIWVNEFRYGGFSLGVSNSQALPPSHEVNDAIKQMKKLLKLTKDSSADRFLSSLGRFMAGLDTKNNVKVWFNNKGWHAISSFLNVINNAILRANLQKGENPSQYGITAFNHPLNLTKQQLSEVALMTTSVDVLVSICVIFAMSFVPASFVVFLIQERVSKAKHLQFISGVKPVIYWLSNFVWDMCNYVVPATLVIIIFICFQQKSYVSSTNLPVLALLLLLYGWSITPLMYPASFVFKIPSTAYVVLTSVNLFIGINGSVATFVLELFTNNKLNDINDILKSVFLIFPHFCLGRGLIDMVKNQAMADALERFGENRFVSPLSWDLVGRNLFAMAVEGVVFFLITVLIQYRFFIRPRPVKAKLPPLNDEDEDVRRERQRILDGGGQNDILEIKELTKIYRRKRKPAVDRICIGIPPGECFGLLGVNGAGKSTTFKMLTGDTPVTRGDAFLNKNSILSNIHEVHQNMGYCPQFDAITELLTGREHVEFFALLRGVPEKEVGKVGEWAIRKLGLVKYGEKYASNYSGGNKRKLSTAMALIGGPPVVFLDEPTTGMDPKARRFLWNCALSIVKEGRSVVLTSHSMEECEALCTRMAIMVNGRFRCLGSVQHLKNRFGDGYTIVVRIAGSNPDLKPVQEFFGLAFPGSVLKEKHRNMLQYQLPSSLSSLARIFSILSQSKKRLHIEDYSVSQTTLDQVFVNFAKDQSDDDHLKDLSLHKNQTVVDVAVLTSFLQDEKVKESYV
Procedure: In some embodiments, the stabilization of ABCA is measured by direct measurement of ABCA (e.g., ABCA protein, or nucleic acid) using a cell based assay. Cell based assays can be performed in any cells in which ABCA is expressed (e.g., J774 macrophages), including cells which have been transfected with ABCA (e.g. HeLa cells). Any cell type can be used. For example, J774 macrophages can be used to assess relative ABCA1 protein levels in the presence and absence of polypeptides of the invention. The cells are first contacted with a compound that will induce ABCA (e.g., cAMP or a cAMP analogue such as, 8-bromo-cAMP) to upregulate ABCA (e.g., ABCA1) expression, then exposed to […] polypeptides of the invention in the absence of the cAMP stimulus to evaluate whether ABCA1 protein was stabilized or degraded. Relative levels of ABCA1 protein can be assessed using any means known in the art including, e.g., immunoblot analysis of cell membranes (Oram et al., J. Biol. Chem., 278:52379-52385 (2003)) or hybridization of nucleic acid probes to ABCA mRNA.
(FIG. 29). J774 macrophages were used for experiments. Panel A—Cells were labeled (48 h) with 3H cholesterol and treated with (right bars) and without (left bars) a cAMP analog to modulate ABCA1 expression. […]

Substance | blood glucose upon glucose challenge (C57Bl/6 mice) | ABCA1 protein level (stabilization) (ABCA1)
T8212-2: CS6253 analog with combination of leucine and isoleucine residues (L→I) (EV[Cit]SKLEEWLAAI[Cit]ELAEELLARLKS) [Peptide T8212-2] | poorly active in lowering blood glucose responses | 
T8212-5: CS6253 analog with combination of leucine and isoleucine residues (L→I) (EV[Cit]SKIEEWIAAL[Cit]ELAEEILARLKS) [Peptide T8212-5] | poorly active in lowering blood glucose responses | 
apoA-I: full-length native apolipoprotein A-I, lipid-free |  | maintained at high-levels
T8212-6: CS6253 analog with combination of leucine and isoleucine residues (L→I) (EV[Cit]SKIEEWLAAI[Cit]EIAEELLARLKS) [Peptide T8212-6] | poorly active in lowering blood glucose responses | 
T8212-9: CS6253 analog with combination of leucine and isoleucine residues (L→I) (EV[Cit]SKIEEWIAAI[Cit]EIAEEIIARLKS) [Peptide T8212-9] | poorly active in lowering blood glucose responses | 
T8212-4: CS6253 analog with combination of leucine and isoleucine residues (L→I) (EV[Cit]SKLEEWIAAL[Cit]ELAEEILARLKS) [Peptide T8212-4] | poorly active in lowering blood glucose responses | 
